Measured values reported in patent US20200032271A1, “COMBINATION THERAPY WITH LIPOSOMAL ANTISENSE OLIGONUCLEOTIDES” (Bio-Path Holdings, Inc., priority 2016, published 2020).
Marks after values point to notes of the source that are not given here. [PEt] = P-ethoxy (ethyl phosphotriester) internucleoside linkage

Experiment: Adverse events in study 2003-0578 (NCI CTCAE grading)
[1] = MDS at enrollment (n = 4), all treatment groups

BP1001: liposome-incorporated P-ethoxy antisense oligodeoxynucleotide (5′-ATATTTGGCGATGGCTTC-3′, SEQ ID NO: 1) specific to grb2 mRNA, in neutral DOPC liposomes (DNA, all [PEt], methylation of C not given here; incorporated in neutral DOPC liposomes)
91: Patients with AEs ≥Grade 3, total events (all patients (N = 39))
10: AML progression, number of patients (monotherapy 5 mg/m^2 (n = 13)) | Patients with AEs ≥Grade 3, number of patients (monotherapy 5 mg/m^2 (n = 13))
2: Investigations ≥Grade 3, total patients (all patients (N = 39)) | Acidosis ≥Grade 3, number of patients (monotherapy 5 mg/m^2 (n = 13)) | Febrile neutropenia ≥Grade 3, number of patients (monotherapy 5 mg/m^2 (n = 13)) | Hypoglycemia ≥Grade 3, number of patients (monotherapy 5 mg/m^2 (n = 13)) | Hypotension ≥Grade 3, number of patients (monotherapy 5 mg/m^2 (n = 13)) | Multi-organ failure ≥Grade 3, number of patients (monotherapy 5 mg/m^2 (n = 13)) | Respiratory failure ≥Grade 3, number of patients (monotherapy 5 mg/m^2 (n = 13)) | Respiratory, thoracic, and mediastinal disorders ≥Grade 3, number of patients (monotherapy 5 mg/m^2 (n = 13)) | Vascular disorders ≥Grade 3, number of patients (monotherapy 5 mg/m^2 (n = 13)) | Blood and lymphatic system disorders ≥Grade 3, number of patients (monotherapy 10 mg/m^2 (n = 6))
5: Blood and lymphatic system disorders ≥Grade 3, number of patients (monotherapy 5 mg/m^2 (n = 13))
11: Blood and lymphatic system disorders ≥Grade 3, total patients (all patients (N = 39))
1^a: Febrile neutropenia ≥Grade 3, number of patients (monotherapy 10 mg/m^2 (n = 6))
disorders (4/4): Renal and urinary disorders ≥Grade 3, total events (all patients (N = 39)) | Renal and urinary disorders ≥Grade 3, total patients (all patients (N = 39))
3: Investigations ≥Grade 3, total events (all patients (N = 39)) | Acute kidney injury ≥Grade 3, number of patients (monotherapy 5 mg/m^2 (n = 13)) | Cardiac disorders ≥Grade 3, number of patients (monotherapy 5 mg/m^2 (n = 13)) | General disorders and administration site conditions ≥Grade 3, number of patients (monotherapy 5 mg/m^2 (n = 13)) | Heart failure ≥Grade 3, number of patients (monotherapy 5 mg/m^2 (n = 13)) | Leukocytosis ≥Grade 3, number of patients (monotherapy 5 mg/m^2 (n = 13)) | Renal and urinary disorders ≥Grade 3, number of patients (monotherapy 5 mg/m^2 (n = 13)) | Tumor lysis syndrome ≥Grade 3, number of patients (monotherapy 5 mg/m^2 (n = 13))
0: Hyponatremia ≥Grade 3, number of patients [1] | Hypotension ≥Grade 3, number of patients [1] | Hypovolemia ≥Grade 3, number of patients [1] | Hypoxia ≥Grade 3, number of patients [1] | Investigations ≥Grade 3, number of patients [1] | Leukocytosis ≥Grade 3, number of patients [1] | Metabolism and nutritional disorders ≥Grade 3, number of patients [1] | Multi-organ failure ≥Grade 3, number of patients [1] | Musculoskeletal and connective tissue disorders ≥Grade 3, number of patients [1] | Neoplasms benign, malignant, and unspecified (incl. cysts and polyps) ≥Grade 3, number of patients [1] | Penile Pain ≥Grade 3, number of patients [1] | Platelet count decreased ≥Grade 3, number of patients [1] | Pleural Effusions ≥Grade 3, number of patients [1] | Pneumonia ≥Grade 3, number of patients [1] | Psychiatric disorders ≥Grade 3, number of patients [1] | Renal and urinary disorders ≥Grade 3, number of patients [1] | Reproductive system and breast disorders ≥Grade 3, number of patients [1] | Respiratory distress ≥Grade 3, number of patients [1] | Respiratory failure ≥Grade 3, number of patients [1] | Respiratory, thoracic, and mediastinal disorders ≥Grade 3, number of patients [1] | Tumor lysis syndrome ≥Grade 3, number of patients [1] | Vascular disorders ≥Grade 3, number of patients [1] | Abdominal Pain ≥Grade 3, number of patients (monotherapy 5 mg/m^2 (n = 13)) | Back Pain ≥Grade 3, number of patients (monotherapy 5 mg/m^2 (n = 13)) | Cataract ≥Grade 3, number of patients (monotherapy 5 mg/m^2 (n = 13)) | Dyspnea ≥Grade 3, number of patients (monotherapy 5 mg/m^2 (n = 13)) | Extremity Lower Edema ≥Grade 3, number of patients (monotherapy 5 mg/m^2 (n = 13)) | Eye disorders ≥Grade 3, number of patients (monotherapy 5 mg/m^2 (n = 13)) | Gastrointestinal disorders ≥Grade 3, number of patients (monotherapy 5 mg/m^2 (n = 13)) | Hallucinations ≥Grade 3, number of patients (monotherapy 5 mg/m^2 (n = 13)) | Hypovolemia ≥Grade 3, number of patients (monotherapy 5 mg/m^2 (n = 13)) | Musculoskeletal and connective tissue disorders ≥Grade 3, number of patients (monotherapy 5 mg/m^2 (n = 13)) | Neoplasms benign, malignant, and unspecified (incl. cysts and polyps) ≥Grade 3, number of patients (monotherapy 5 mg/m^2 (n = 13)) | Penile Pain ≥Grade 3, number of patients (monotherapy 5 mg/m^2 (n = 13)) | Pneumonia ≥Grade 3, number of patients (monotherapy 5 mg/m^2 (n = 13)) | Psychiatric disorders ≥Grade 3, number of patients (monotherapy 5 mg/m^2 (n = 13)) | Reproductive system and breast disorders ≥Grade 3, number of patients (monotherapy 5 mg/m^2 (n = 13)) | Abdominal Pain ≥Grade 3, number of patients (monotherapy 10 mg/m^2 (n = 6)) | Acute kidney injury ≥Grade 3, number of patients (monotherapy 10 mg/m^2 (n = 6)) | Asthenia ≥Grade 3, number of patients (monotherapy 10 mg/m^2 (n = 6)) | Back Pain ≥Grade 3, number of patients (monotherapy 10 mg/m^2 (n = 6)) | Cardiac disorders ≥Grade 3, number of patients (monotherapy 10 mg/m^2 (n = 6)) | Cataract ≥Grade 3, number of patients (monotherapy 10 mg/m^2 (n = 6)) | Dyspnea ≥Grade 3, number of patients (monotherapy 10 mg/m^2 (n = 6)) | Extremity Lower Edema ≥Grade 3, number of patients (monotherapy 10 mg/m^2 (n = 6)) | Eye disorders ≥Grade 3, number of patients (monotherapy 10 mg/m^2 (n = 6)) | Gastrointestinal disorders ≥Grade 3, number of patients (monotherapy 10 mg/m^2 (n = 6)) | Hallucinations ≥Grade 3, number of patients (monotherapy 10 mg/m^2 (n = 6)) | Heart failure ≥Grade 3, number of patients (monotherapy 10 mg/m^2 (n = 6)) | Hypocalcemia ≥Grade 3, number of patients (monotherapy 10 mg/m^2 (n = 6)) | Hypoglycemia ≥Grade 3, number of patients (monotherapy 10 mg/m^2 (n = 6)) | Hyponatremia ≥Grade 3, number of patients (monotherapy 10 mg/m^2 (n = 6)) | Hypotension ≥Grade 3, number of patients (monotherapy 10 mg/m^2 (n = 6))
(5/5): General disorders and administration site conditions ≥Grade 3, total events (all patients (N = 39)) | General disorders and administration site conditions ≥Grade 3, total patients (all patients (N = 39))
1: Patients with AEs ≥Grade 3, number of patients [1] | Asthenia ≥Grade 3, number of patients (monotherapy 5 mg/m^2 (n = 13)) | Hepatic failure ≥Grade 3, number of patients (monotherapy 5 mg/m^2 (n = 13)) | Hepatobiliary disorders ≥Grade 3, number of patients (monotherapy 5 mg/m^2 (n = 13)) | Hypocalcemia ≥Grade 3, number of patients (monotherapy 5 mg/m^2 (n = 13)) | Hypokalemia ≥Grade 3, number of patients (monotherapy 5 mg/m^2 (n = 13)) | Hyponatremia ≥Grade 3, number of patients (monotherapy 5 mg/m^2 (n = 13)) | Hypoxia ≥Grade 3, number of patients (monotherapy 5 mg/m^2 (n = 13)) | Investigations ≥Grade 3, number of patients (monotherapy 5 mg/m^2 (n = 13)) | Platelet count decreased ≥Grade 3, number of patients (monotherapy 5 mg/m^2 (n = 13)) | Respiratory distress ≥Grade 3, number of patients (monotherapy 5 mg/m^2 (n = 13)) | Acidosis ≥Grade 3, number of patients (monotherapy 10 mg/m^2 (n = 6)) | General disorders and administration site conditions ≥Grade 3, number of patients (monotherapy 10 mg/m^2 (n = 6)) | Hepatic failure ≥Grade 3, number of patients (monotherapy 10 mg/m^2 (n = 6)) | Hepatobiliary disorders ≥Grade 3, number of patients (monotherapy 10 mg/m^2 (n = 6)) | Hypokalemia ≥Grade 3, number of patients (monotherapy 10 mg/m^2 (n = 6))
disorders (2/2): Hepatobiliary disorders ≥Grade 3, total events (all patients (N = 39)) | Hepatobiliary disorders ≥Grade 3, total patients (all patients (N = 39)) | Vascular disorders ≥Grade 3, total events (all patients (N = 39)) | Vascular disorders ≥Grade 3, total patients (all patients (N = 39))
4: AML progression, number of patients (monotherapy 10 mg/m^2 (n = 6))
28: Patients with AEs ≥Grade 3, total patients (all patients (N = 39))
polyps) (2/2): Neoplasms benign, malignant, and unspecified (incl. cysts and polyps) ≥Grade 3, total events (all patients (N = 39)) | Neoplasms benign, malignant, and unspecified (incl. cysts and polyps) ≥Grade 3, total patients (all patients (N = 39))
19: Metabolism and nutritional disorders ≥Grade 3, total events (all patients (N = 39))
disorders (3/3): Cardiac disorders ≥Grade 3, total events (all patients (N = 39)) | Cardiac disorders ≥Grade 3, total patients (all patients (N = 39))
disorders (7/7): Respiratory, thoracic, and mediastinal disorders ≥Grade 3, total events (all patients (N = 39)) | Respiratory, thoracic, and mediastinal disorders ≥Grade 3, total patients (all patients (N = 39))
12: Blood and lymphatic system disorders ≥Grade 3, total events (all patients (N = 39)) | Metabolism and nutritional disorders ≥Grade 3, total patients (all patients (N = 39)) | Metabolism and nutritional disorders ≥Grade 3, number of patients (monotherapy 5 mg/m^2 (n = 13))
